Data on 14 compounds can be found in BindingDB's records for doi:10.1016/j.bmcl.2011.01.001 (Abbott Laboratories, 2011).

SMILES strings stand for the structures. Some results are limits rather than exact numbers.

The target in the experiment is Aurora kinase A (Homo sapiens) (UniProt O14965). Nature of the experiment: Inhibition of aurora 2.
Chain of Aurora kinase A (Homo sapiens) (O14965 whole entry, looked up): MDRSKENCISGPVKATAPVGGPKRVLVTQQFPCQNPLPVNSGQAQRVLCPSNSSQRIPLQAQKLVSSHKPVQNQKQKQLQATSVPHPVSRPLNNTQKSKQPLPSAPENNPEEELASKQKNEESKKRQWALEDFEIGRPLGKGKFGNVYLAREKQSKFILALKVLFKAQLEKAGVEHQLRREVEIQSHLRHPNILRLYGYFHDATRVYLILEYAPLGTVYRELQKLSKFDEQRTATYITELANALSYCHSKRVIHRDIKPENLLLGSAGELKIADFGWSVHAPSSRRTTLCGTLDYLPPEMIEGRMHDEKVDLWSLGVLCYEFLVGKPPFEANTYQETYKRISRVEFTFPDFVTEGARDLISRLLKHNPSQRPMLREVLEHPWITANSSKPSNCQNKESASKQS

In general, Ki refers to a measure of affinity in units of concentration, obtained from inhibition or displacement. The low end stands for a stronger hold on the target, the high end for a looser hold on the target. In the case of `CN(C)CCn1cnc(-c2ccc(F)cc2)c1-c1ccc2[nH]ncc2c1` [2-(4-(4-fluorophenyl)-5-(1H-indazol-5-yl)-1H-imidazol-1-yl)-N,N-dimethylethanamine], the Ki was over 4.9 µM.

On to `c1cn2c(NC3CCCCC3)c(-c3ccc4[nH]ncc4c3)nc2cn1` [N-cyclohexyl-2-(1H-indazol-5-yl)imidazo[1,2-a]pyrazin-3-amine], for which the Ki came out at 2.07 µM.

The compound `CCCCNc1c(-c2ccc3[nH]ncc3c2)nc2ncccn12` [N-butyl-2-(1H-indazol-5-yl)imidazo[1,2-a]pyrimidin-3-amine] came in with a Ki of over 4.9 µM.

Take `Clc1ccc(Nc2c(-c3ccc4[nH]ncc4c3)nc3ncccn23)cc1` [N-(4-chlorophenyl)-2-(1H-indazol-5-yl)imidazo[1,2-a]pyrimidin-3-amine]: the Ki is 2.81 µM.

The compound `c1ccc(-c2c(-c3ccc4[nH]ncc4c3)nc3ncccn23)cc1` [2-(1H-indazol-5-yl)-3-phenylimidazo[1,2-a]pyrimidine] returned a Ki of over 4.9 µM.

`c1ccc(Nc2nc(-c3ccc4[nH]ncc4c3)c(-c3ccccc3)s2)cc1` [4-(1H-indazol-5-yl)-N,5-diphenylthiazol-2-amine] displayed an inhibitory constant (Ki) of over 4.9 µM.

`c1ccn2c(NC3CCCCC3)c(-c3ccc4[nH]ncc4c3)nc2c1` [N-cyclohexyl-2-(1H-indazol-5-yl)imidazo[1,2-a]pyridin-3-amine] had an inhibition constant Ki of 8.67 µM.

In the case of `CCNc1nc(-c2ccc3[nH]ncc3c2)cs1` [N-ethyl-4-(1H-indazol-5-yl)thiazol-2-amine], affinity was put at a Ki of 3.41 µM.

The compound `c1ccc(CCNc2nc(-c3ccc4[nH]ncc4c3)cs2)cc1` [4-(1H-indazol-5-yl)-N-phenethylthiazol-2-amine] showed a Ki of 0.81 µM.

In turn, `c1ccc(CNc2nc(-c3ccc4[nH]ncc4c3)c(-c3ccccc3)s2)cc1` [N-benzyl-4-(1H-indazol-5-yl)-5-phenylthiazol-2-amine] came in with an inhibitory constant (Ki) of over 4.9 µM.

The compound `Nc1nc(-c2ccc3[nH]ncc3c2)cs1` [4-(1H-indazol-5-yl)thiazol-2-amine] gave a Ki of 2.12 µM.

The compound `Fc1ccc(-c2ncn(C3CCN(Cc4ccccc4)C3)c2-c2ccc3[nH]ncc3c2)cc1` (centres undefined) [5-(1-(1-benzylpyrrolidin-3-yl)-4-(4-fluorophenyl)-1H-imidazol-5-yl)-1H-indazole] displayed a Ki of over 4.9 µM.

For `Fc1ccc(-c2ncn(CCCN3CCOCC3)c2-c2ccc3[nH]ncc3c2)cc1` [4-(3-(4-(4-fluorophenyl)-5-(1H-indazol-5-yl)-1H-imidazol-1-yl)propyl)morpholine], the Ki was over 4.9 µM.

In the case of `Cc1nc(-c2ccc3[nH]ncc3c2)cs1` [4-(1H-indazol-5-yl)-2-methylthiazole], affinity was put at a Ki of 4.45 µM.
